Experiments:
[1] = molecular target: T1, recombinant homomeric hASIC1a channels (Homo sapiens, UniProt P78348); test: Two-electrode voltage clamp in Xenopus laevis oocytes expressing gated ion channels (Example 4); format: cell-based
T1 construct: expressed in transfected cells; host or cells: Xenopus laevis oocytes (nuclear microinjection of expression vector such as pcDNA3)
T1 sequence (P78348 1-528): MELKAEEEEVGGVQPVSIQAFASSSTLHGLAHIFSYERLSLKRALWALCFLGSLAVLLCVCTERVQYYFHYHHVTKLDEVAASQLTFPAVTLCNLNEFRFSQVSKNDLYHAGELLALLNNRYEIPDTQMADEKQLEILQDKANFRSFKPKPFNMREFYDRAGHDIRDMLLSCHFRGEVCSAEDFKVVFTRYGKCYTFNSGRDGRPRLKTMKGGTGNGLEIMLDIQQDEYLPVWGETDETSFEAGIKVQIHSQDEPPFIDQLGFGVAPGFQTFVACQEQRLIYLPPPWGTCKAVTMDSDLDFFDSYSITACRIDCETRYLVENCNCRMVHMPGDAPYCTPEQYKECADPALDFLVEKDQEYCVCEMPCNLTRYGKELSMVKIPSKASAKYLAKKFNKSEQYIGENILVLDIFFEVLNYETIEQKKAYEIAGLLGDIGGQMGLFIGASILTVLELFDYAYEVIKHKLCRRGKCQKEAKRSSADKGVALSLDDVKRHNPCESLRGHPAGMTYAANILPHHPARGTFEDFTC

hASIC1a = molecular target: T2, hASIC1a (Homo sapiens, UniProt P78348); test: Fluorescent calcium dye (Fluo-4-NW) assay in cells expressing hASIC1a (Example 1); format: cell-based; conditions: CHO cells stably expressing hASIC1a, mild acidic buffer, increasing concentrations; FIGS. 1A-1C
T2 construct: expressed in transfected cells
T2 sequence (P78348 1-528): T1 sequence (P78348 1-528)
Method: ASIC1a expressing CHO cells are grown in culture medium (DMEM with 10% FBS), in polystyrene culture flasks ([…]) at 37° C. in a humidified atmosphere of 5% CO2. Confluency of cells should be 70-90% on day of plating. Cells are rinsed with 10 ml of PBS and cells are re-suspended by addition of culture medium and trituration with a 25 ml pipette. The cells are seeded at a density of approximately 10^4 cells/ml (50 μl/well and then brought to a total volume of 150 μl/well with culture medium, following 30 minutes incubation) in black-walled, clear bottom, 96-well plates pre-treated with poly-D-lysine (from BD Bioscience). Plated cells were allowed to proliferate for 48-72 h before loading with dye. Fluo-4-NW (500 μg, DiscoveRX) is dissolved in 110 μl DMSO. The Fluo-4-NW stock solution (1000×) is diluted with the assay buffer. A water soluble stock solution (100×) of probenicid (DiscoveRX) and a stock solution (1000×) of pluronic acid (P-127, Molecular Probes) are also added in the loading buffer containing Fluo-4NW dye. The culture medium is aspirated from the wells, and 100 μl of the Fluo-4-NW loading solution is added to each well. The cells are incubated at 37° C. for 30 min. followed by 30 min. incubation at room temperature. The assay buffer contains 90 mM NaCl, 5 mM KCl, 4 mM CaCl2, 0.8 mM MgSO4, 50 mM NMDG, 5 mM Glucose-D, 10 mM HEPES, pH 7.4. After the loading time, the loading buffer is not removed and the fluorescence is measured in FlexStation™ (Molecular Devices, USA), or any other suitable equipment known to the skilled in the art. Temperature: 25° C. First addition: 50 μl test solution at a rate of 26 μl/sec and a starting height of 125 μl. […] Reading intervals: pre-incubation—120 sec. antagonist phase, addition of MES at 145 sec. and reading time with agonist 100 sec (total run time of 240 sec.). Fluorescence obtained after stimulation is corrected for the mean basal fluorescence (in modified Assay Buffer). […] Gated-channel activity was determined by measuring intracellular calcium variation using a fluorescent calcium dye (Fluo-4-NW).

[2] = system: chemically-induced spontaneous pain evoked by intraplantar injection of formalin; test: Formalin test, model of acute tonic pain (Example 7); format: in vivo; conditions: rat, 1 min prior to formalin
Method: Male Sprague-Dawley rats are housed together in groups of three animals under standard conditions with unrestricted access to food and water. All experiments are conducted according to the ethical guidelines for investigations of experimental pain in conscious animals (Zimmerman, 1983).
Assessment of formalin-induced flinching behavior in normal, uninjured rats (body weight 200-300 g) is made after formalin (2.5% in saline, 50-100 μl, s.c.) is injected into the plantar surface of the hindpaw using a 27 G needle. Rats are pretreated with test compounds either administered intravenously (IV), by subcutaneous injection (SC) or by orally (PO).
Nociceptive behavior is determined manually every 5 min by measuring the amount of time spent in each of four behavioral categories: 0, treatment of the injected hindpaw is indistinguishable from that of the contralateral paw; 1, the injected paw has little or no weight placed on it; 2, the injected paw is elevated and is not in contact with any surface; 3, the injected paw is licked, bitten, or shaken. A weighted nociceptive score, ranging from 0 to 3 is calculated by multiplying the time spent in each category by the category weight, summing these products, and dividing by the total time for each 5 min block of time. (Coderre et al., Pain 1993; 54: 43). On the basis of the resulting response patterns, […] of nociceptive behavior are identified and scored: first phase (P1; 0-5 min), interphase (Int; 6-15 min), second phase (P2; […]), phase 2A (P2A; 16-40 min) and phase 2B (P2B; 41-60 min).
Statistical analysis is performed using the Prism™ 4.01 software package (GraphPad, San Diego, Calif., USA). The difference in response levels between treatment groups and control vehicle group is analyzed using an ANOVA followed by Bonferroni's method for post-hoc pair-wise comparisons. A p value <0.05 is considered to be significant.

With `Cc1cc(OC2CCN(Cc3ccccc3)CC2)c2cc(O)ccc2n1` [Compound 13, 4-(1-benzylpiperidin-4-yloxy)-2-methylquinolin-6-ol] the IC50 ([1]; Table 1, generated using oocytes as in Example 4) was 0.1 to 10 µM, the “reduction in the current evoked by a mild pH stimulation” value ([1]; acid-induced inward currents in oocytes injected with hASIC1a cDNA, FIGS. 2A-2C) was “clear dose-dependent reduction” and the “inhibition of acid-induced hASIC1a activity (intracellular calcium variation)” value (hASIC1a) was “dose-dependently inhibited”. The “pain intensity as evaluated by the licking behavior” value ([2]; SC, 2.5, 7.5, 25 and 75 mg/kg, FIG. 5A) was “dose-dependent reduction” and the ED50 ([2]; SC, FIG. 5B, read-out: ED50 (number of licking and biting episodes in phase IIa of the formalin test)) was about 6 mg/kg.

Source: patent US20090023773A1, “COMPOSITIONS AND METHODS FOR MODULATING GATED ION CHANNELS” (PainCeptor Pharma Corporation, priority 2007, published 2009)
